Target: EmrE (Escherichia coli, UniProt P23895)
Assay: biochemical

Chain of EmrE (P23895 whole entry): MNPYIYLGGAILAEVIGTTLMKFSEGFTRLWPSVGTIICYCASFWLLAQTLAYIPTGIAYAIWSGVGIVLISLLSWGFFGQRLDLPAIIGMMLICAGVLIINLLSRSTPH

`c1ccc([P+](c2ccccc2)(c2ccccc2)c2ccccc2)cc1` [TPP^+] was tested, and the Kd was 120 ± 12 nM.
